Assays:
Gemcitabine = compound: Nc1ccn([C@@H]2O[C@H](CO)[C@@H](O)C2(F)F)c(=O)n1 [Gemcitabine]; conditions: max 0.3 µM
Summary of the method: (§1)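 Cancer cell lines were plated in 1536-well plates in 7.5 μl of DMEM/F12 or RPMI with 10% FBS and kept 24 hours at 37°C and 5% CO2 before 72 hours of dosing, with final DMSO typically 0.2%. CellTiter-Glo 2.0 luminescence measured viability, scaled between blank-well and DMSO-well means. Dose responses were fitted to a two-parameter logistic curve with a non-linear mixed effects model. This fit gives the single-agent IC50.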

Trametinib = compound: CC(=O)Nc1cccc(-n2c(=O)n(C3CC3)c(=O)c3c(Nc4ccc(I)cc4F)n(C)c(=O)c(C)c32)c1 [Trametinib]; conditions: max 1 µM
Summary of the method: as §1

Prexasertib = compound: COc1cccc(OCCCN)c1-c1cc(Nc2cnc(C#N)cn2)n[nH]1 [Prexasertib]; conditions: max 1 µM
Summary of the method: as §1

Gefitinib = compound: COc1cc2ncnc(Nc3ccc(F)c(Cl)c3)c2cc1OCCCN1CCOCC1 [Gefitinib]; conditions: max 10 µM
Summary of the method: as §1

AZD1775 = compound: C=CCn1c(=O)c2cnc(Nc3ccc(N4CCN(C)CC4)cc3)nc2n1-c1cccc(C(C)(C)O)n1 [AZD1775]; conditions: max 3 µM
Summary of the method: as §1

AZD7648 = compound: Cc1cc2ncnn2cc1Nc1ncc2c(n1)n(C1CCOCC1)c(=O)n2C [AZD7648]; conditions: max 10 µM
Summary of the method: as §1

SN-38 = compound: CCc1c2c(nc3ccc(O)cc13)-c1cc3c(c(=O)n1C2)COC(=O)[C@]3(O)CC [SN-38]; conditions: max 0.3 µM
Summary of the method: as §1

SG3199 = compound: CC1=CN2[C@@H](C1)C=NC3=CC(=C(C=C3C2=O)OC)OCCCCCOC4=C(C=C5C(=C4)N=C[C@@H]6CC(=CN6C5=O)C)OC [SG3199]; conditions: max 0.001 µM
Summary of the method: as §1

SRA737 = compound: N#Cc1cnc(Nc2cc(NC[C@H]3CNCCO3)c(C(F)(F)F)cn2)cn1 [SRA737]; conditions: max 10 µM
Summary of the method: as §1

Lapatinib = compound: CS(=O)(=O)CCNCc1ccc(-c2ccc3ncnc(Nc4ccc(OCc5cccc(F)c5)c(Cl)c4)c3c2)o1 [Lapatinib]; conditions: max 10 µM
Summary of the method: as §1

Crizotinib = compound: C[C@@H](Oc1cc(-c2cnn(C3CCNCC3)c2)cnc1N)c1c(Cl)ccc(F)c1Cl [Crizotinib]; conditions: max 10 µM
Summary of the method: as §1

AZD2811 = compound: CCN(CCO)CCCOc1ccc2c(Nc3cc(CC(=O)Nc4cccc(F)c4)[nH]n3)ncnc2c1 [AZD2811]; conditions: max 1 µM
Summary of the method: as §1

AZD6738 = compound: C[C@@H]1COCCN1C2=NC(=NC(=C2)C3(CC3)[S@](=N)(=O)C)C4=C5C=CNC5=NC=C4 [AZD6738]; conditions: max 10 µM
Summary of the method: as §1

5-Fluorouracil = compound: O=c1[nH]cc(F)c(=O)[nH]1 [5-Fluorouracil]; conditions: max 20 µM
Summary of the method: as §1

AZD1390 = compound: CC(C)n1c(=O)n(C)c2cnc3cc(F)c(-c4ccc(OCCCN5CCCCC5)nc4)cc3c21 [AZD1390]; conditions: max 0.3 µM
Summary of the method: as §1

AZD5991 = compound: Cc1c2c(nn1C)CSCc1cc(n(C)n1)CSc1cc(c3ccccc3c1)OCCCc1c(C(=O)O)n(C)c3c-2c(Cl)ccc13 [AZD5991]; conditions: max 1 µM
Summary of the method: as §1

Carboplatin = compound: C1CC(C1)(C(=O)[O-])C(=O)[O-].N.N.[Pt+2] [Carboplatin]; conditions: max 10 µM
Summary of the method: as §1

AZD5153 = compound: COc1nnc2ccc(N3CCC(c4ccc(OCCN5CCN(C)C(=O)[C@H]5C)cc4)CC3)nn12 [AZD5153]; conditions: max 1 µM
Summary of the method: as §1

AZD0156 = compound: CN(C)CCCOc1ccc(-c2ccc3ncc4c(c3c2)n(C2CCOCC2)c(=O)n4C)cn1 [AZD0156]; conditions: max 3 µM
Summary of the method: as §1

[1] = compound: O=C(Nc1ccc2[nH]nc(-c3ccncc3)c2c1)[C@@H]1CCN(CC(=O)N2CCN(c3ccc(-c4ncccn4)cc3)CC2)C1; conditions: max 5 µM
Summary of the method: as §1

Venetoclax = compound: CC1(C)CCC(CN2CCN(c3ccc(C(=O)NS(=O)(=O)c4ccc(NCC5CCOCC5)c([N+](=O)[O-])c4)c(Oc4cnc5[nH]ccc5c4)c3)CC2)=C(c2ccc(Cl)cc2)C1 [Venetoclax]; conditions: max 1 µM
Summary of the method: as §1

Savolitinib = compound: C[C@@H](c1ccc2nccn2c1)n1nnc2ncc(-c3cnn(C)c3)nc21 [Savolitinib]; conditions: max 1 µM
Summary of the method: as §1

Selumetinib = compound: Cn1cnc2c(F)c(Nc3ccc(Br)cc3Cl)c(C(=O)NOCCO)cc21 [Selumetinib]; conditions: max 10 µM
Summary of the method: as §1

Doxorubicin = compound: COc1cccc2c1C(=O)c1c(O)c3c(c(O)c1C2=O)C[C@@](O)(C(=O)CO)C[C@@H]3O[C@H]1C[C@H](N)[C@H](O)[C@H](C)O1 [Doxorubicin]; conditions: max 1 µM
Summary of the method: as §1

Paclitaxel = compound: CC(=O)O[C@H]1C(=O)[C@@]2(C)[C@H]([C@H](OC(=O)c3ccccc3)[C@]3(O)C[C@H](OC(=O)[C@H](O)[C@@H](NC(=O)c4ccccc4)c4ccccc4)C(C)=C1C3(C)C)[C@]1(OC(C)=O)CO[C@@H]1C[C@@H]2O [Paclitaxel]; conditions: max 3 µM
Summary of the method: as §1

AZD4320 = compound: CN(CC[C@H](CSC1=CC=CC=C1)NC2=C(C=C(C=C2)S(=O)(=O)NC(=O)C3=CC=C(C=C3)N4CCC(CC4)[C@H](C5=CC=CC=C5C6=CC=C(C=C6)Cl)O)S(=O)(=O)C(F)(F)F)CCO [AZD4320]; conditions: max 1 µM
Summary of the method: as §1

Alisertib = compound: COc1cc(Nc2ncc3c(n2)-c2ccc(Cl)cc2C(c2c(F)cccc2OC)=NC3)ccc1C(=O)O [Alisertib]; conditions: max 10 µM
Summary of the method: as §1

Olaparib = compound: O=C(c1cc(Cc2n[nH]c(=O)c3ccccc23)ccc1F)N1CCN(C(=O)C2CC2)CC1 [Olaparib]; conditions: max 10 µM
Summary of the method: as §1

Taselisib = compound: Cc1nc(-c2cn3c(n2)-c2ccc(-c4cnn(C(C)(C)C(N)=O)c4)cc2OCC3)n(C(C)C)n1 [Taselisib]; conditions: max 10 µM
Summary of the method: as §1

AZD8186 = compound: C[C@@H](Nc1cc(F)cc(F)c1)c1cc(C(=O)N(C)C)cc2c(=O)cc(N3CCOCC3)oc12 [AZD8186]; conditions: max 10 µM
Summary of the method: as §1

Palbociclib = compound: CC(=O)c1c(C)c2cnc(Nc3ccc(N4CCNCC4)cn3)nc2n(C2CCCC2)c1=O [Palbociclib]; conditions: max 10 µM
Summary of the method: as §1

MK-2206 = compound: NC1(c2ccc(-c3nc4ccn5c(=O)[nH]nc5c4cc3-c3ccccc3)cc2)CCC1 [MK-2206]; conditions: max 10 µM
Summary of the method: as §1

Dasatinib = compound: CC1=C(C(=CC=C1)Cl)NC(=O)C2=CN=C(S2)NC3=CC(=NC(=N3)C)N4CCN(CC4)CCO [Dasatinib]; conditions: max 2 µM
Summary of the method: as §1

Etoposide = compound: COc1cc([C@@H]2c3cc4c(cc3[C@@H](O[C@@H]3O[C@@H]5CO[C@@H](C)O[C@H]5[C@H](O)[C@H]3O)[C@H]3COC(=O)[C@H]23)OCO4)cc(OC)c1O [Etoposide]; conditions: max 10 µM
Summary of the method: as §1

AZD5363 = compound: C1CN(CCC1(C(=O)N[C@@H](CCO)C2=CC=C(C=C2)Cl)N)C3=NC=NC4=C3C=CN4 [AZD5363]; conditions: max 10 µM
Summary of the method: as §1

Row | Cell Line | IC50, cell viability 72 h (Gemcitabine) [µM] | IC50, cell viability 72 h (Trametinib) [µM] | IC50, cell viability 72 h (Prexasertib) [µM] | IC50, cell viability 72 h (Gefitinib) [µM] | IC50, cell viability 72 h (AZD1775) [µM] | IC50, cell viability 72 h (AZD7648) [µM] | IC50, cell viability 72 h (SN-38) [µM] | IC50, cell viability 72 h (SG3199) [µM] | IC50, cell viability 72 h (SRA737) [µM] | IC50, cell viability 72 h (Lapatinib) [µM] | IC50, cell viability 72 h (Crizotinib) [µM] | IC50, cell viability 72 h (AZD2811) [µM] | IC50, cell viability 72 h (AZD6738) [µM] | IC50, cell viability 72 h (5-Fluorouracil) [µM] | IC50, cell viability 72 h (AZD1390) [µM] | IC50, cell viability 72 h (AZD5991) [µM] | IC50, cell viability 72 h (Carboplatin) [µM] | IC50, cell viability 72 h (AZD5153) [µM] | IC50, cell viability 72 h (AZD0156) [µM] | IC50, cell viability 72 h [1] [µM] | IC50, cell viability 72 h (Venetoclax) [µM] | IC50, cell viability 72 h (Savolitinib) [µM] | IC50, cell viability 72 h (Selumetinib) [µM] | IC50, cell viability 72 h (Doxorubicin) [µM] | IC50, cell viability 72 h (Paclitaxel) [µM] | IC50, cell viability 72 h (AZD4320) [µM] | IC50, cell viability 72 h (Alisertib) [µM] | IC50, cell viability 72 h (Olaparib) [µM] | IC50, cell viability 72 h (Taselisib) [µM] | IC50, cell viability 72 h (AZD8186) [µM] | IC50, cell viability 72 h (Palbociclib) [µM] | IC50, cell viability 72 h (MK-2206) [µM] | IC50, cell viability 72 h (Dasatinib) [µM] | IC50, cell viability 72 h (Etoposide) [µM] | IC50, cell viability 72 h (AZD5363) [µM]
1 | ACHN (Kidney Carcinoma) | 0.0201 | > 1 | 0.0108 | 3.43 | 0.116 | > 10 | 0.0127 | > 0.001 | 1.58 | 8.52 | > 10 | > 1 | 0.97 | > 20 | > 0.3 | > 1 | > 10 | 0.623 | > 3 | > 5 | > 1 | > 1 | > 10 | 0.264 | 0.461 | > 1 | 9.51 | > 10 | 6.33 | > 10 | 4.94 | > 10 | 0.179 | 5.5 | > 10
2 | AMO-1 (Plasma Cell Myeloma) | 0.0153 | > 1 | 0.00882 | > 10 | 0.633 | > 10 | 0.0184 | > 0.001 | 2.01 | 6.71 | 3 | > 1 | 3.18 | > 20 | > 0.3 | 0.0186 | > 10 | 0.0366 | > 3 | > 5 | > 1 | > 1 | > 10 | 0.169 | < 0.003 | > 1 | 0.192 | > 10 | 3.41 | > 10 | > 10 | 1.15 | > 2 | 1.68 | 6.03
3 | BT-549 (Breast Carcinoma) | > 0.3 | > 1 | 0.592 | > 10 | 2.52 | > 10 | 0.171 | > 0.001 | > 10 | > 10 | > 10 | > 1 | > 10 | > 20 | > 0.3 | > 1 | > 10 | 0.531 | > 3 | > 5 | > 1 | > 1 | > 10 | > 1 | 0.0253 | > 1 | > 10 | > 10 | > 10 | > 10 | > 10 | > 10 | > 2 | 9.22 | > 10
4 | Ca9-22 (Head and Neck Carcinoma) | 0.0732 | 0.657 | 0.0313 | 3.84 | 0.714 | > 10 | 0.0105 | > 0.001 | > 10 | 2.14 | 9.4 | > 1 | 2.37 | > 20 | > 0.3 | > 1 | > 10 | 0.35 | > 3 | 4.67 | > 1 | > 1 | > 10 | 0.931 | 0.00745 | > 1 | 7.14 | > 10 | 1.37 | > 10 | > 10 | > 10 | 0.229 | > 10 | > 10
5 | Caov-4 (Ovarian Carcinoma) | 0.0785 | 0.108 | 0.0126 | > 10 | 0.816 | > 10 | 0.0116 | > 0.001 | 4.02 | > 10 | > 10 | > 1 | 3.19 | > 20 | > 0.3 | 0.993 | > 10 | 0.719 | > 3 | 3.33 | > 1 | > 1 | > 10 | 0.253 | 0.545 | > 1 | > 10 | > 10 | > 10 | > 10 | > 10 | 9.35 | > 2 | 6.04 | > 10

— the supplement of paper PMC11061612
